Reference: ChEMBL document CHEMBL5137044, “Expansion of the S-CN-DABO scaffold to exploit the impact on inhibitory activities against the non-nucleoside HIV-1 reverse transcriptase” (Eur J Med Chem, 2022)

Experiments:
[1] = biological target: Cytochrome P450 2D6 (Homo sapiens, UniProt P10635); experiment: Inhibition of CYP2D6 in human liver microsomes incubated for 15 to 40 mins in presence of NADPH; type: ADME, Microsome
[2] = test system: Human immunodeficiency virus 1; experiment: Antiviral activity against drug-resistant HIV-1 Y188L mutant infected in human MT4 cells assessed as reduction in virus-induced cytopathic effect incubated for 5 days by MTT assay; type: functional, organism-based; conditions: Human immunodeficiency virus 1, Y188L mutant, MT4, 120 h
[3] = Cytotoxicity against human MT4 cells assessed as cell growth inhibition incubated for 5 days by MTT assay; type: toxicity, cell-based; conditions: time 5 day
[4] = test system: Human immunodeficiency virus 1; experiment: Antiviral activity against drug-resistant HIV-1 E138K mutant infected in human MT4 cells assessed as reduction in virus-induced cytopathic effect incubated for 5 days by MTT assay; type: functional, organism-based; conditions: Human immunodeficiency virus 1, E138K mutant, MT4, 120 h
[5] = biological target: Human immunodeficiency virus type 1 reverse transcriptase (Human immunodeficiency virus 1, UniProt Q72547); experiment: Inhibition of recombinant wild-type p66/p51 HIV-1 reverse transcriptase incubated for 40 mins by picogreen dye-based spectrofluorometric analysis
[6] = test system: Human immunodeficiency virus 1; experiment: Antiviral activity against drug-resistant HIV-1 Y181C mutant infected in human MT4 cells assessed as reduction in virus-induced cytopathic effect incubated for 5 days by MTT assay; type: functional, organism-based; conditions: Human immunodeficiency virus 1, Y181C mutant, MT4, 120 h
[7] = Fold resistance, ratio of EC50 for antiviral activity against drug-resistant HIV-1 E138K mutant infected in human MT4 cells to EC50 for antiviral activity against […] HIV-1 infected in human MT4 cells; type: functional
[8] = Fold resistance, ratio of EC50 for antiviral activity against drug-resistant HIV-1 Y181C mutant infected in human MT4 cells to EC50 for antiviral activity against […] HIV-1 infected in human MT4 cells; type: functional
[9] = Fold resistance, ratio of EC50 for antiviral activity against drug-resistant HIV-1 Y188L mutant infected in human MT4 cells to EC50 for antiviral activity against […] HIV-1 infected in human MT4 cells; type: functional
[10] = test system: Human immunodeficiency virus 1; experiment: Antiviral activity against […] HIV-1 infected in human MT4 cells assessed as reduction in virus-induced cytopathic effect incubated for 5 days by MTT assay; type: functional, organism-based; conditions: Human immunodeficiency virus 1, MT4, 120 h
[11] = Fold resistance, ratio of EC50 for antiviral activity against drug-resistant HIV-1 K103 N mutant infected in human MT4 cells to EC50 for antiviral activity against […] HIV-1 infected in human MT4 cells; type: functional
[12] = Selectivity index, ratio of CC50 for human MT4 cells to EC50 for antiviral activity against NNRTI resistant HIV-1 infected in human MT4 cells; type: toxicity, cell-based; conditions: read-out: Ratio CC50/EC50
[13] = test system: Human immunodeficiency virus 1; experiment: Antiviral activity against drug-resistant HIV-1 L100I mutant infected in human MT4 cells assessed as reduction in virus-induced cytopathic effect incubated for 5 days by MTT assay; type: functional, organism-based; conditions: Human immunodeficiency virus 1, L100I mutant, MT4, 120 h
[14] = test system: Human immunodeficiency virus 1; experiment: Antiviral activity against drug-resistant HIV-1 K103 N mutant infected in human MT4 cells assessed as reduction in virus-induced cytopathic effect incubated for 5 days by MTT assay; type: functional, organism-based; conditions: Human immunodeficiency virus 1, K103 N mutant, MT4, 120 h
[15] = Fold resistance, ratio of EC50 for antiviral activity against drug-resistant HIV-1 L100I mutant infected in human MT4 cells to EC50 for antiviral activity against […] HIV-1 infected in human MT4 cells; type: functional

Sequence of Cytochrome P450 2D6 (P10635 whole entry): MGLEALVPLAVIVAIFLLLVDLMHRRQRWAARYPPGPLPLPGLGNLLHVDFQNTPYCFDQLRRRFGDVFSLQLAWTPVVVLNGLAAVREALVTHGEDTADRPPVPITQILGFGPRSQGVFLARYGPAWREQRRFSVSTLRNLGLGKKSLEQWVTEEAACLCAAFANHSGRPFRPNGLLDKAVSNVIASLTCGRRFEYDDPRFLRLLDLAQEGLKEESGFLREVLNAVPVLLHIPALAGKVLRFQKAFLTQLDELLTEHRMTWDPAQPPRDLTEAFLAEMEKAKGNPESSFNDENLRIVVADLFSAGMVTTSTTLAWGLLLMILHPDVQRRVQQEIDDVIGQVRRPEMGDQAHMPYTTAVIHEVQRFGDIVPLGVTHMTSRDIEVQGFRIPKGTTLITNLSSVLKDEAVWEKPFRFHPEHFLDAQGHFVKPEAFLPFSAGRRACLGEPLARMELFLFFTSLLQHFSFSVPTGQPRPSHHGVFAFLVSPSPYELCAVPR

| Structure (SMILES) | IC50 [1] [µM] | EC50 [2] [µM] | CC50 at 120 h [3] [µM] | EC50 [4] [µM] | IC50 [5] [µM] | EC50 [6] [µM] | Ratio EC50 [7] | Ratio EC50 [8] | Ratio EC50 [9] | EC50 [10] [µM] | Ratio EC50 [11] | selectivity ratio [12] | EC50 [13] [µM] | EC50 [14] [µM] | Ratio EC50 [15] |
| --- | --- | --- | --- | --- | --- | --- | --- | --- | --- | --- | --- | --- | --- | --- | --- |
| COc1ccc2c(c1)[C@]13CCCC[C@@H]1[C@H](C2)N(C)CC3 [DEXTROMETHORPHAN] | 0.0408 |  |  |  |  |  |  |  |  |  |  |  |  |  |  |
| COc1cc(OC)cc(C(C#N)c2nc(SC(C)C)[nH]c(=O)c2C)c1 (stereo not drawn) |  | > 41.1 | 41.1 | 2.54 | 2.58 | > 41.1 | 4 | >61 | >61 | 0.67 | >61 | 61 | 3.36 | > 41.1 | 5 |
| Cc1c(C(C#N)c2ccc(Cl)nc2)nc(SC(C)C)[nH]c1=O (stereo not drawn) |  | > 216 | 216 | 28.6 | 203 | 41.3 | 1 | 2 | >10 | 20.6 | 2 | 10 | 32.3 | 41.3 | 2 |
| Cc1cccc(C)c1C(C#N)c1nc(SC(C)C)[nH]c(=O)c1C (stereo not drawn) |  | > 68.1 | 68.1 | 3.48 | 6.59 | > 68.1 | 4 | >73 | >73 | 0.93 | >73 | 73 | > 68.1 | > 68.1 | >73 |
